Measurements as given in patent US10799508B2, “Methods for treating cancer using HSP90 inhibitors” (AI Therapeutics, Inc., priority 2017, dated 2020).

Experiments:
[1] = tested on: IFN-γ-induced PD-L1 expression in SK-MEL-28 cells; assay: High-content primary screen for small molecules that reduce IFN-γ induced PD-L1 expression; format: cell-based, human; conditions: SK-MEL-28, IFN-γ 50 ng/ml, drugs at 40, 480 and 5000 nM, viability >75%
Method: SK-MEL-28 cells (melanoma cell line; […] Cells were expanded in MEM (Corning) containing 10% FBS (Sigma) and 2 mM L-Glutamine. Frozen stocks of cells were prepared for direct use in the high-throughput screening (HTS) assay. Cells were harvested, pelleted and then resuspended in 95% FBS & 5% DMSO at a concentration 1×10^7 cells/ml. One ml aliquots were rate frozen to −80° C. at a rate of 1 degree per minute. These stocks were then transferred to vapor phase liquid nitrogen for long term storage. For screening, frozen cell vials were quickly thawed with continuous agitation in a at 37° C. water bath then re-suspended in the assay media at room temperature and centrifuged at 1,000 rpm for 5 minutes. The resulting pellet was re-suspended in appropriate volume and counted using an automated cell counter and diluted accordingly. Using a manually curated library of approximately 2500 individual drugs (2000 approved drugs, 500 unapproved drugs), drugs from the source plate were transferred to the destination plates (384-well assay plates—Corning #3712) using an ECHO 550 liquid handler (Labcyte). SK-MEL-28 cells (1750 cells per well in 30 μL of media), treated with IFN-g (50 ng/ml final) were added to these pre-formatted plates using a Multidrop™ Combi reagent dispenser (Thermofisher). […] Plates were centrifuged at 800 rpm for one minute before being incubated in a 5% CO2 humidified incubator at 37° C. After assessment for viability, plates were then prepared for immunostaining. Briefly, 16% paraformaldehyde (Electron Microscopy Sciences) was added to each well to a final concentration of 4%, for 10 minutes at room temperature. Following this time, the fix was aspirated and cells were washed 3 times with PBS. […] After this time, the blocking reagent was aspirated and immunostaining reagent added. […] Plates were sealed and kept at 4 C overnight. […] After this step, the plates were washed 3 times with PBS. After the final wash, PBS was aspirated and 30 uL of QUANTI-Luc™ (Invivogen) was added per well.

[2] = tested on: IFN-γ-induced PD-L1 expression in SK-MEL-28 cells; assay: 10-point dose response validation of IFN-γ-induced PD-L1 signal; format: cell-based, human; conditions: 48 h; for IFN-γ-induced PD-L1 signal: SK-MEL-28, 10-point dose response 9.8-5000 nM, FIG. 1A-D; for concentration required to inhibit IFN-γ-induced PD-L1 expression compared with concentration required to affect cell proliferation: SK-MEL-28, IFN-γ 50 ng/ml, FIG. 2A-E
Method: FIG. 1A-D. Validation dose response curves of HSP90 inhibitors tested in the original screen. A) CNF2024; B) PF04928473; C) tanespimycin; D) HSP-990. SK-MEL-28 cells treated with IFN-γ and with the indicated HSP90 inhibitor at different concentrations. Cells were assayed for cell viability (square, % viability on left axis) and PD-L1 expression (circle, Z-score right axis) at 48 h after treatment of IFN-γ and/or HSP90 inhibitors. Quadruplicate wells were used for determination of cell viability and PD-L1 expression. Average values were plotted. […] Lysates were probed with anti PD-L1 antibody.
(§1) FIG. 2A-E. Dose response curves of 5 additional HSP90 inhibitors. A) STA-9090, B) CUDC-305, C) MPC-3100, D) XL-888 and E) TAS-116. SK-MEL-28 cells treated with IFN-γ (50 ng/ml) and with the indicated HSP90 inhibitor at different concentrations. Cells were assayed for cell viability (square, % viability on left axis) and PD-L1 expression (circle, Z-score right axis) at 48 h after treatment of IFN-γ and/or HSP inhibitors. Quadruplicate wells were used for determination of cell viability and PD-L1 expression. Average values were plotted.
After assessment for viability, plates were then prepared for immunostaining. Briefly, 16% paraformaldehyde (Electron Microscopy Sciences) was added to each well to a final concentration of 4%, for 10 minutes at room temperature. Following this time, the fix was aspirated and cells were washed 3 times with PBS. Cells were blocked using blocking solution (1% bovine serum albumin in PBS) for 30 minutes. After this time, the blocking reagent was aspirated and immunostaining reagent added. The immunostaining reagent consisted of a biotin conjugated-PD-L1 antibody (eBioscience) diluted in blocking buffer. Plates were sealed and kept at 4 C overnight. The following day, plates were washed 3 times with PBS followed by addition of a streptavidin-luciferase fusion protein (Invivogen) diluted in blocking buffer, for 1 h at room temperature. After this step, the plates were washed 3 times with PBS. After the final wash, PBS was aspirated and 30 uL of QUANTI-Luc™ (Invivogen) was added per well. Plates were immediately read on a plate reader (Victor 3V plate reader, 0.1s) and luciferase activity measured.
The raw PD-L1 intensity (the luciferase readout) corresponding to drug screen plates was normalized to blank plates containing only IFN-γ-treated wells, and the resulting ratio was used for the calculation of Z-scores.
(§2) These 4 HSP90 inhibitors were validated using the same experimental protocol employed above (using the SK-MEL-28 cells +/−IFN-γ in 384 well plates), with the only exception to the original assay design was that each drug was now tested in a 10-point dose response assay where the concentration of drug tested was 9.8-5000 nM (2 fold serial dilution). Cells were seeded and treated in quadruplicate. Viability was assessed after 48 h of treatment of four HSP 90 inhibitors and prior to harvesting the cells for testing PD-L1 signal, as described above.

[3] = alamarBlue cell viability; format: cell-based; conditions: human, SK-MEL-28 cells, SK-MEL-28, highest concentration tested (1000 nM), IFN-γ 50 ng/ml
Method: as §1
44 h later, cell viability was determined using alamarBlue™ cell viability reagent (Thermofisher), according to the manufacturers protocol. Briefly, 3 μL of alamarBlue™ reagent was added to each well and plates were incubated for a further 4 h. The plates were read on a Victor ^3V plate reader (Perkin Elmer). Viability for each drug was expressed as a percentage by comparing drug-treated cells and untreated control cells (Set to 100%).
as §2

[4] = tested on: MV-4-11, MOLM-16, TUR, U937, KMS-28, OCI-LY-19 and Z138 cell lines; assay: Synergy of MPC-0767 and venetoclax versus basal BCL-2 abundance; format: cell-based, human; conditions: 72 hours, CellTiter-Glo
Method: FIG. 12: Cell lines representing acute myeloid leukemia, multiple myeloma, diffuse large B cell lymphoma and mantle cell lymphoma were assayed for basal abundance of BCL-2 (Y axis) and a high/low threshold is shown by dashed line. Cell line sensitivity to venetoclax after 72 hour treatment as assessed by CellTiter-Glo (X axis) is denoted by EC50 values shown in parentheses. Following drug combination treatment of MPC-0767 and venetoclax, determination of synergy is shown by bar graphs in black (synergy observed) or grey (no synergy observed).
After 72 hour treatment with the indicated drug combinations, cell viability was assessed using CellTiter-Glo. […] The absolute EC75 for each single agent and drug combination was calculated using the R package DRC (Ritz et al., Dose-Response Analysis Using R. PLoS One. 2015. 10(12):e0146021; R Core Team, A language and environment for statistical computing. R Foundation for Statistical Computing, Vienna, Austria. 2017). […]
To test whether BCL-2 abundance is predictive of the synergy between HSP90 inhibitors and venetoclax observed here, we analyzed BCL-2 abundance in cell lines representing acute myeloid leukemia (MV-4-11, MOLM-16, TUR and U937), multiple myeloma (KMS-28), diffuse large B cell lymphoma (OCI-LY-19) and mantle cell lymphoma (Z138) under basal conditions using flow cytometry. […]

[5] = tested on: PD-L1 cell surface expression in AML cell lines (PL-21, TUR, MOLM-14, MV-4-11); assay: Flow cytometry of IFN-γ-induced PD-L1 cell surface expression in AML cells; format: cell-based, human; conditions: 24 hours
Method: FIG. 13A-D: MPC-0767 blocks IFN-γ-induced PD-L1 expression in AML cells. A) PL-21, B) TUR, C) MOLM-14, D) MV-4-11 cells treated with MPC-0767 (2 μM), IFN-γ (50 ng/ml) or IFN-γ+MPC-0767 for 24 h before cells were harvested for assessment of PD-L1 cell surface expression.
To ascertain whether MPC-0767 can block IFN-γ-induced PD-L1 expression in AML cells, four AML cell lines harboring WT FLT3 (n=2) or FLT3-ITD (n=2) were treated with human IFN-γ (50 ng/ml) alone, MPC-0767 (2 μM) alone or the combination for 24 hours. Cells were harvested to determine PD-L1 cell surface expression by flow cytometry. Cells were also stained with a viability stain to gate on viable cells and exclude any dead cells. As shown in FIG. 13A-D, all cell lines induced PD-L1 cell surface expression in response to IFN-γ treatment (6-25 fold).

Molecule | hit in the primary screen (reduction of IFN-γ-induced PD-L1 expression) [1] | IFN-γ-induced PD-L1 signal [2] | concentration required to inhibit IFN-γ-induced PD-L1 expression compared with concentration required to affect cell proliferation [2] | viability at 48 h, 1 µM [3] [%] | other results
COc1c(C)cnc(Cn2cnc3c(Cl)nc(N)nc32)c1C [CNF-2024] | identified as hits | blocked |  |  | 
CN(C)c1cc2c(cc1Sc1nc3c(N)nccc3n1CCNCC(C)(C)C)OCO2 [CUDC-305] |  |  | far lower | > 80 | 
COc1cccc(-c2cc(F)ccc2[C@H]2Cc3nc(N)nc(C)c3C(=O)N2)n1 [HSP-990] | identified as hits | blocked |  |  | 
C[C@H](N)C(=O)O[C@@H](C)C(=O)N1CCC(CCn2c(Sc3cc4c(cc3Br)OCO4)nc3c(N)ncnc32)CC1 [MPC-0767] |  |  |  |  | synergy with venetoclax ([4]; cell lines with high BCL-2 levels): observed in 4 out of 4 cell lines; synergy with venetoclax ([4]; three cell lines with low BCL-2 levels): no synergy was observed; basal PD-L1 cell surface expression ([5]; MPC-0767 2 μM alone, four AML cell lines): did not significantly reduce; reduction of IFN-γ-induced PD-L1 cell surface expression ([5]; MPC-0767 2 μM with IFN-γ 50 ng/ml, range over four AML cell lines): 43-83%
CC1(C)CC(=O)c2c(C(F)(F)F)nn(-c3ccc(C(N)=O)c(N[C@H]4CC[C@H](O)CC4)c3)c2C1 [PF0498473] | identified as hits | blocked |  |  | 
CC(C)c1cc(-c2n[nH]c(=O)n2-c2ccc3c(ccn3C)c2)c(O)cc1O [STA-9090] |  |  | far lower | > 80 | 
CCc1cc(C(N)=O)ccc1-n1nc(C(C)C)c2c(-n3cnc(-c4cnn(C)c4)c3)ccnc21 [TAS-116] |  |  | far lower | > 80 | 
CC[C@@H](C)Nc1cc(C(=O)NC2CC3CCC(C2)N3c2ccc(C(=O)C3CC3)cn2)c(C)cc1C(N)=O (stereo partly drawn) [XL-888] |  |  | far lower | > 80 | 
C=CCNC1=C2C[C@@H](C)C[C@H](OC)[C@H](O)[C@@H](C)/C=C(\C)[C@H](OC(N)=O)[C@@H](OC)/C=C\C=C(/C)C(=O)NC(=CC1=O)C2=O [tanespimycin] | identified as hits | blocked |  |  | 
IFN-γ: human interferon-gamma used to induce PD-L1 (protein, UniProt P01579 24-161, looked up) Interferon gamma: QDPYVKEAENLKKYFNAGHSDVADNGTLFLGILKNWKEESDRKIMQSQIVSFYFKLFKNFKDDQSIQKSVETIKEDMNVKFFNSNKKKRDDFEKLTNYSVTDLNVQRKAIHELIQVMAELSPAAKTGKRKRSQMLFRG |  |  |  |  | induction of PD-L1 cell surface expression ([5]; human IFN-γ 50 ng/ml alone, range over four AML cell lines): 6-25 fold
